Measured values: patent publication US11396517B1, “Exo-aza spiro inhibitors of menin-MLL interaction” (Janssen Pharmaceutica NV, priority 2017, dated 2022)
Like-named read-outs stand apart in the source and are kept apart here.

Columns and labels:
MOLM14 = experiment: Proliferation assay B (spheroid assay) MOLM14; format: cell-based, human; details: MOLM14 cells, confluence at day 8, absolute IC50, read-out: (3b) Spheroid assay MOLM14 (IC50(μM)) Assay B
Outline: (§1)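 IC50 derived from % effect on day-8 imaged confluence, scaled between DMSO-treated cells (high) and 1 μM staurosporine (low), using a variable-slope fit constrained 0-100%. Cells seeded as spheroids in ultra-low-attachment plates and exposed to compound for 8 days, 0.3% DMSO.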

MV-4-11 [1] = experiment: Proliferation assay B (spheroid assay) MV-4-11; format: cell-based, human; details: Homo sapiens, MV4-11, 192 h, MV-4-11 cells, confluence at day 8, absolute IC50; read-out: (3b) Spheroid assay MV-4--11 (IC50(μM)) Assay B
Outline: as §1

MV-4-11 [2] = experiment: Proliferation assay A (spheroid assay) MV-4-11; format: cell-based, human; details: MV-4-11 cells, 8 d, AUC of confluence against time, absolute IC50, read-out: (3a) Spheroid assay MV-4-11 (IC50(μM)) Assay A
Outline: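 Spheroid growth in ultra-low-attachment round-bottom wells (1,500 MV-4-11, 300 MOLM14 or 750 K562 cells), compound titration at 0.3% DMSO, 8 d at 37° C. Confluence imaged every 4 h; AUC from t=0 baseline expressed as % of DMSO control and fitted for absolute IC50.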

K562 = experiment: Proliferation assay B (spheroid assay) K562 control cell line; format: cell-based; details: Homo sapiens, 192 h; K562 cells (MLL wildtype control), confluence at day 8; read-out: (3b) Spheroid assay K562 Assay B
Protocol: 3b) Proliferation Assay B
The anti-proliferative effect of menin/MLL protein/protein interaction inhibitor test compounds was assessed in human leukemia cell lines. The cell lines MV-4-11 and MOLM14 harbor MILL translocations and express the MILL fusion proteins MLL-AF4 and MLL-AF9, respectively, as well as the wildtype protein from the second allele. […] K562 was used as a control cell line containing two MLL wildtype alleles in order to exclude compounds that display general cytotoxic effects.
MV-4-11 and MOLM14 were cultured in RPMI-1640 (Sigma Aldrich) supplemented with 10% fetal bovine serum (HyClone), 2 mM L-glutamine (Sigma Aldrich) and 50 μg/ml gentamycin (Gibco). K562 were propagated in RPMI-1640 (Sigma Aldrich) supplemented with 20% fetal bovine serum (HyClone), 2 mM L-glutamine (Sigma Aldrich) and 50 μg/ml gentamycin (Gibco).
In order to assess the anti-proliferative effects, 1,500 MV-4-11, 300 MOLM14 cells or 750 K562 cells were seeded in 200 μl media per well in 96-well round bottom, ultra-low attachment plates (Costar, catalogue number 7007). Cell seeding numbers were chosen based on growth curves to ensure linear growth throughout the experiment. Test compounds were added at different concentrations and the DMSO content was normalized to 0.3%. Cells were incubated for 8 d at 37° C. and 5% CO2. Spheroid like growth was measured in real-time by live-cell imaging (IncuCyteZOOM, Essenbio, 4× objective) acquiring images at day 8. Confluence (%) as a measure of spheroid size was determined using an integrated analysis tool.
In order to determine the effect of the test compounds over time, the confluence in each well as a measure of spheroid size, was calculated. Confluence […] at the beginning of the experiment (t=0) was used as baseline for the calculation.
Absolute IC50 values were calculated as percent change in confluence as follows:
LC=Low Control: cells treated with 1 μM of the cytotoxic agent staurosporin
HC=High Control: Mean confluence (%) (DMSO treated cells) % Effect=100−(100*(Sample−LC)/(HC−LC))
To determine the IC50 a curve is fitted to the plot of % Effect vs Log 10 compound concentration using a sigmoidal fit with a variable slope and fixing the maximum to 100% and the minimum to 0%.

Row | Structure (SMILES) | IC50 (MOLM14; Homo sapiens, MOLM-14, 192 h) | IC50 (MV-4-11 [1]) | IC50 (MV-4-11 [2]; Homo sapiens, MV4-11, 192 h) | IC50 (K562) | IC50 (MV-4-11 [2]) | IC50 (MOLM14)
1 | FC(F)(F)Cc1cc2c(N3CCC4(CC(Nc5ccc6cc[nH]c6c5)C4)C3)ncnc2s1 (mixture of isomers) [Compound 311] | > 3.75 µM | 2.62 µM | 2.13 µM | – | – | –
2 | O=c1[nH]c2cc(CNC3CCC4(C3)CN(c3ncnc5sc(CC(F)(F)F)cc35)C4)ccc2o1 (single isomer, unassigned) [Compound 58] | 0.2 µM | 0.11 µM | – | 14100 nM | 0.03 µM | –
3 | Cn1c(=O)[nH]c2cc(CNC3CCC4(C3)CN(c3ncnc5sc(CC(F)(F)F)cc35)C4)ccc21 (stereo not shown) [Compound 54] | 1.05 µM | 0.26 µM | 0.16 µM | – | – | –
4 | CNC(=O)c1ccc(NC2CC3(CCN(c4ncnc5sc(CC(F)(F)F)cc45)C3)C2)cc1 (stereo not shown) [Compound 93] | – | 0.16 µM | 0.09 µM | – | – | 0.62 µM
